Assay results as given in paper PMC9556824, “Design, synthesis and computational study of new benzofuran hybrids as dual PI3K/VEGFR2 inhibitors targeting cancer” (Scientific Reports, 2022).
“And” between values parts separate entries of the source, which are not always exact repeats. Equal entries are not always repeated. Where two headings read alike, the source gives them in different places.

How the values were obtained:
[1] = test system: Hepatocellular carcinoma (HePG2); experiment: Antitumor screening using MTT assay; assay type: cell-based, human; conditions: Homo sapiens; for viability at 1.56 µM: Conc. 1.56 µM; for viability at 1.56 µM / viability at 3.125 µM / viability at 6.25 µM / viability at 12.5 µM / viability at 25 µM / viability at 50 µM / viability at 100 µM: read-out: Average of Relative viability of cells (%); for viability at 3.125 µM: Conc. 3.125 µM; for viability at 6.25 µM: Conc. 6.25 µM; for viability at 12.5 µM: Conc. 12.5 µM; for viability at 25 µM: Conc. 25 µM; for viability at 50 µM: Conc. 50 µM; for viability at 100 µM: Conc. 100 µM; for IC50: mean ± SD, n = 3, read-out: In-vitro cytotoxicity IC50 (µM) HePG2
Description: (§3) Hepatocellular carcinoma (HePG2), mammary gland breast cancer (MCF-7), epithelioid carcinoma cervix cancer (Hela), and human prostate cancer were included on the panel (PC3). […] The cell lines were obtained from the American Type Culture Collection (ATCC) through VACSERA, a Cairo-based holding firm for biological goods and vaccines.
(§4) The panel consisted of hepatocellular carcinoma (HePG2), mammary gland breast cancer (MCF-7), epithelioid carcinoma cervix cancer (Hela) and human prostate cancer (PC3). Human lung fibroblast (WI38) was used to assay the cytotoxicity effect on normal cell. The cell lines were obtained from ATCC via Holding company for biological products and vaccines (VACSERA), Cairo, Egypt. The cytotoxic activity was defined as the concentration of the compound that causes 50% growth inhibition compared with the growth of untreated cells.

[2] = In vitro cytotoxicity against human normal cell line (MTT); assay type: cell-based; conditions: human, WI38, read-out: Average of Relative viability of cells (%); for viability at 3.125 µM: Conc. 3.125 µM; for viability at 6.25 µM: Conc. 6.25 µM; for viability at 12.5 µM: Conc. 12.5 µM; for viability at 25 µM: Conc. 25 µM; for viability at 50 µM: Conc. 50 µM; for viability at 100 µM: Conc. 100 µM; for viability at 1.56 µM: Conc. 1.56 µM
Description: (§1) The anticancer agent's selectivity for cancer cells is a critical consideration for any researcher, as it can decrease the molecule's adverse effects on normal human cells.

[3] = test system: human lung fibroblast (WI38); experiment: as above; assay type: cell-based; conditions: Homo sapiens, WI-38, human normal cell line WI38; mean ± SD, n = 3
Description: as §1

[4] = test system: Hela cells; experiment: Cell cycle arrest analysis; assay type: cell-based, human
Experimental: So, compound 8 was assessed its activity on cell cycle distribution and induction of apoptosis in different phases of Hela cells.
(§2) Annexin V-FITC and PI apoptosis kit were used to detect apoptosis (eBioscience™, San Diego, CA, USA). On a six well plate, Mcf cells were plated at a density of 600,000 cells/ml. The cells were treated with compound 8 at […] after 24 h of incubation. The solvent control consisted of cells developed in medium containing an equivalent volume of DMSO. In accordance with the instructions supplied by the Annexin V-FITC and PI apoptosis kit, the cells were stained with an Annexin V-FITC conjugate and propidium iodide (PI) after 24 h. The percentage of apoptotic, necrotic, and alive cells was then calculated. By using a flow cytometer (NovoCyte, ACEA Biosciences Inc, San Diego, CA, US) and the NovoExpress 1.3.0 software (ACEA Biosciences Inc, San Diego, CA, US), the cells' released fluorescence was examined. Each point on the population plot ("dot plot") corresponds to a single event with a particular fluorescence signal in relation to the axes: Annexin V-FITC green fluorescence.
Researcher : Dr.Omar El-Khouly email : dr.kholy93@gmail.com mob. 01278084495
Assay : Cell Cycle Analysis
Kit used : ab139418_Propidium Iodide Flow Cytometry Kit/BD
Assay samples : Cell culture
code IC50 %G0-G1 %S %G2/M %Pre-G1 Comment
(also on this page, place not known: 0 20 40 60 % OE -G12 /Hela Cont. Hela DNA content %G0-G1 %S %G2/M %Pre-G1)
(1 picture or pasted object on this page, not shown here)

[5] = test system: Hela cells; experiment: Detection of apoptosis (Annexin V-FITC/PI); assay type: cell-based, human
Experimental: In Hela cells, compound 8 induced an early apoptotic effect with 1.79% at 24 h. Also, the enhanced late apoptotic induction with 14.11% by 83-fold compared to the Hela control cell (0.17%). On other hand, necrotic effect in Hela at 24 h was induced by compounds 8 with 8.81% compared to the control cells (1.15%).
as §2

[6] = test system: HePG2, MCF-7, Hela, PC3 cell lines; experiment: Antitumor screening using MTT assay, statements across several cell lines; assay type: cell-based, human; conditions: Homo sapiens
Description: as §3, §4

[7] = test system: mammary gland breast cancer (MCF-7); experiment: Antitumor screening using MTT assay; conditions: Homo sapiens; for viability at 1.56 µM / viability at 3.125 µM / viability at 6.25 µM / viability at 12.5 µM / viability at 25 µM / viability at 50 µM / viability at 100 µM: MCF7, read-out: Average of Relative viability of cells (%); for IC50: MCF7, read-out: In-vitro cytotoxicity IC50 (µM) MCF-7
Description: as §3, §4

[8] = test system: epithelioid carcinoma cervix cancer (Hela); experiment: Antitumor screening using MTT assay; conditions: Homo sapiens, HeLa; for viability at 1.56 µM / viability at 3.125 µM / viability at 6.25 µM / viability at 12.5 µM / viability at 25 µM / viability at 50 µM / viability at 100 µM: read-out: Average of Relative viability of cells (%); for IC50: read-out: In-vitro cytotoxicity IC50 (µM) Hela
Description: as §3, §4

[9] = test system: human prostate cancer (PC3); experiment: Antitumor screening using MTT assay; conditions: Homo sapiens; for viability at 1.56 µM / viability at 3.125 µM / viability at 6.25 µM / viability at 12.5 µM / viability at 25 µM / viability at 50 µM / viability at 100 µM: read-out: Average of Relative viability of cells (%); for IC50: read-out: In-vitro cytotoxicity IC50 (µM) PC3
Description: as §3, §4

[10] = biological target: human PI3Kα (Homo sapiens, UniProt P42336); experiment: Human PI3Kα enzyme inhibition assay (ELISA)
human PI3Kα, sequence (P42336 whole entry): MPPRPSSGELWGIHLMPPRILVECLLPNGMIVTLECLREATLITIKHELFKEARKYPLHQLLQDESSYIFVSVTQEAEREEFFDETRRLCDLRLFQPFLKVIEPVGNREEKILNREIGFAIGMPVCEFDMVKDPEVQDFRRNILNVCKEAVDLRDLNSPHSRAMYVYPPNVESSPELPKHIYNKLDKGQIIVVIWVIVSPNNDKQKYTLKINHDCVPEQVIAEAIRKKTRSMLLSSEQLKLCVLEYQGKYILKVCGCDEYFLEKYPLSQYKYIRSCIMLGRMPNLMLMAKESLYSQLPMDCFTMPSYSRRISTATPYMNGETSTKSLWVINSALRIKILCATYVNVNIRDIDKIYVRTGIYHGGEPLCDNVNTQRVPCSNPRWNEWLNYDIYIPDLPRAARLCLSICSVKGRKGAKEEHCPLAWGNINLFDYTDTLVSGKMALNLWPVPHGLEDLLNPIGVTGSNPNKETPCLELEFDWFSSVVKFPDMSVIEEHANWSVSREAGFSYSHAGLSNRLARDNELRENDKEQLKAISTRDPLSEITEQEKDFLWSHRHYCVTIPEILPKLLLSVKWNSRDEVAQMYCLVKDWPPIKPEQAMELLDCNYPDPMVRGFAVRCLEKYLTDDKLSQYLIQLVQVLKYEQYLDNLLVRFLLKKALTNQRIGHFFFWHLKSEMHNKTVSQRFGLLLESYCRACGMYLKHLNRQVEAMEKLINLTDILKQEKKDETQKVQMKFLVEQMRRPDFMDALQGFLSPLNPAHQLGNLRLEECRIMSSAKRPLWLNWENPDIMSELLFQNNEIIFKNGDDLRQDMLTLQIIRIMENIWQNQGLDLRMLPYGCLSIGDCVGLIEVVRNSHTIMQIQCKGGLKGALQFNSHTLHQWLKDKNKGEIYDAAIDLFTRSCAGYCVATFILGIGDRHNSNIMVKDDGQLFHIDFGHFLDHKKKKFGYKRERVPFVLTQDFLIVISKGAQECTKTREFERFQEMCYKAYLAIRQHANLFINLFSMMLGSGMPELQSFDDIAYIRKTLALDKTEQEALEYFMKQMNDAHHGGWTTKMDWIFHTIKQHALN
human PI3Kα, sequence (P27986 whole entry partner): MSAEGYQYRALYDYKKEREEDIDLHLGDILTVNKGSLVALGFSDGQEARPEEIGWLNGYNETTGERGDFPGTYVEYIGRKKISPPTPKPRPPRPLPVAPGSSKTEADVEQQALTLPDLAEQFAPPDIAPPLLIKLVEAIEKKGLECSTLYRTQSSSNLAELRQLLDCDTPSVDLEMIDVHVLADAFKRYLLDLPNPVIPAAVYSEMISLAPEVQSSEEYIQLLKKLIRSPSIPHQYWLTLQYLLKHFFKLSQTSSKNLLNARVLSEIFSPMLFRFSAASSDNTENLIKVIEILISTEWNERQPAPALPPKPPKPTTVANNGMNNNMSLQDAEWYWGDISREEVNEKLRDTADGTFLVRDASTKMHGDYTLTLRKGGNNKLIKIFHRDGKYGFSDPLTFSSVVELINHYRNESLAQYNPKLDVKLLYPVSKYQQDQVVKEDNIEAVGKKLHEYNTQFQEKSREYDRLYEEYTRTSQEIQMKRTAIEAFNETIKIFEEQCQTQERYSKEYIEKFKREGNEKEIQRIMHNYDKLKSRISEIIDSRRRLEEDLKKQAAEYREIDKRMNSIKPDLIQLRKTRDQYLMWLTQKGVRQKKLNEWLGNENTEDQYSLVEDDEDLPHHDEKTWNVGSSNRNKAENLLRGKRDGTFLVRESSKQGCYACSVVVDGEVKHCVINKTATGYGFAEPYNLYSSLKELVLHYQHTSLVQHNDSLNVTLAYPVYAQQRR
Experimental: (§5) PI3Kα and VEGFR-2 activity were verified by enzyme-linked immunosorbent assay (ELISA) assay technique. […] Then, the mean absorbance of each group of standard and tested compounds was determined. The standard curve was drawn on log–log paper with the absorbance on the Y-axis and the standard concentration on the X-axis.

[11] = biological target: human VEGFR-2 (Homo sapiens, UniProt P35968); experiment: Human VEGFR-2 enzyme inhibition assay (ELISA)
human VEGFR-2, sequence (P35968 20-1356): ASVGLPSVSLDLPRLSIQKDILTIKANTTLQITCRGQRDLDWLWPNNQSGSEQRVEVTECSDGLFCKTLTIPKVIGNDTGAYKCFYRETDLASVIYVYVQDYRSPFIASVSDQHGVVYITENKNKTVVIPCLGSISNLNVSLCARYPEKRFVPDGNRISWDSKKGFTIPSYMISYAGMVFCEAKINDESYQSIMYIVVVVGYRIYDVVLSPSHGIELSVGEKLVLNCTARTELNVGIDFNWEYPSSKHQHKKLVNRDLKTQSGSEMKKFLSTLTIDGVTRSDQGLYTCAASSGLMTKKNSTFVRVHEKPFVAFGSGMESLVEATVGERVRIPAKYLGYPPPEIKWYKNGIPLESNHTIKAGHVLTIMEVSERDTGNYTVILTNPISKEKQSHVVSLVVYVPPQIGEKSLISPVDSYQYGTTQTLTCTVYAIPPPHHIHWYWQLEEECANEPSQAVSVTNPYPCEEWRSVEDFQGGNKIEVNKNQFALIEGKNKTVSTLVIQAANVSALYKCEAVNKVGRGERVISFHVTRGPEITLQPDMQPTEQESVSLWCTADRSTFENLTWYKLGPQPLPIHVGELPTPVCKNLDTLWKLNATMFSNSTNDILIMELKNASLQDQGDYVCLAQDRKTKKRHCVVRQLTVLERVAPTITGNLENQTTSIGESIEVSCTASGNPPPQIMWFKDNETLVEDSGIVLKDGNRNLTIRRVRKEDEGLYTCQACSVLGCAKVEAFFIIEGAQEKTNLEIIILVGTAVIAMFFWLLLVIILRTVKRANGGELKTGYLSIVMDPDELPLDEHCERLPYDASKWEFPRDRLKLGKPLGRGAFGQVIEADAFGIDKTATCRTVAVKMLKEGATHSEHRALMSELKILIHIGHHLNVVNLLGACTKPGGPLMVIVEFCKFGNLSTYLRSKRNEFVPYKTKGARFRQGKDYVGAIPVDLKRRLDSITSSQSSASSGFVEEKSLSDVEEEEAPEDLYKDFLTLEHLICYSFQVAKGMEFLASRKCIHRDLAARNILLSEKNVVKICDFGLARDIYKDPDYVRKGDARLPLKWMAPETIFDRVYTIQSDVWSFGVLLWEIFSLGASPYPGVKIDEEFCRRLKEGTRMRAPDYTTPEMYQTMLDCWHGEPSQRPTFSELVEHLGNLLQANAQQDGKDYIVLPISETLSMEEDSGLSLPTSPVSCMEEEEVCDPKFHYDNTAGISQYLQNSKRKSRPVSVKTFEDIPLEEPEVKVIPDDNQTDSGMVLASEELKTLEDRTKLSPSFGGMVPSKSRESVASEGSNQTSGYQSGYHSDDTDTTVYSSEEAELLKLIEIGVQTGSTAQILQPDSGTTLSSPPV
Experimental: as §5

[12] = test system: Hela; design: method as in PMID 25086915; conditions: read-out: IC50 against Hela; cited from earlier work
[13] = test system: MCF-7; design: method as in PMID 25086915; conditions: read-out: IC50 against MCF-7; cited from earlier work
[14] = WI38 human lung fibroblast cells (normal cell line)
[15] = WI38 normal lung fibroblast cells

C/C(=N\NC(=S)Nc1ccc(Cl)cc1)c1cc2ccccc2o1 [Compound 8, (E)-2-(1-(benzofuran-2-yl)ethylidene)-N-(4-chlorophenyl)hydrazine-1-carbothioamide]
viability at 1.56 µM [1]: 99.5% | viability at 3.125 µM [1]: 81.4% | viability at 6.25 µM [1]: 67.3% | viability at 12.5 µM [1]: 24.9% | viability at 25 µM [1]: 29.1% | viability at 50 µM [1]: 20.8% | viability at 100 µM [1]: 13.2% | IC50 [1]: 9.73 ± 0.7 µM | viability at 3.125 µM [2, 14]: 100% | viability at 6.25 µM [2, 14]: 89.3% | viability at 12.5 µM [2, 14]: 75.6% | viability at 25 µM [2, 14]: 62.7% | viability at 50 µM [2, 14]: 48.2% | viability at 100 µM [2, 14]: 36.4% | viability at 1.56 µM [2, 15]: 100% | IC50 [3]: 48.2 ± 2.8 µM | Cell cycle analysis comment [4]: Pre-G1 apoptosis and cell growth arrest at G1/S phase | Cell cycle distribution (%) %G0–G1 [4]: 47.06% | Cell cycle distribution (%) %G2/M [4]: 1.71% | Cell cycle distribution (%) %S ([4]; 24 h): 51.23% | Cell cycle distribution (%) %Pre-G1 ([4]; after 48 h exposure): 24.71% | Cell cycle analysis comment ([4]; listed as OE-G12): cell growth arrest@G1/S phase | late apoptotic induction [5]: 14.11% | early apoptotic effect ([5]; 24 h): 1.79% | necrotic effect ([5]; 24 h): 8.81% | late apoptotic induction, fold compared to Hela control cell ([5]; control 0.17%): 83 fold | IC50 ([6]; PC-3, read-out: IC50 range against HePG and PC3 cell lines): 11 to 17 µM | melting point: 207 to 209 °C | viability at 1.56 µM [7]: 99.1% | viability at 3.125 µM [7]: 79.8% | viability at 6.25 µM [7]: 65.7% | viability at 12.5 µM [7]: 42.9% | viability at 25 µM [7]: 28.3% | viability at 50 µM [7]: 21.2% | viability at 100 µM [7]: 13.7% | IC50 [7]: 11.6 ± 0.9 µM | viability at 1.56 µM [8]: 88.6% | viability at 3.125 µM [8]: 76.1% | viability at 6.25 µM [8]: 53.7% | viability at 12.5 µM [8]: 32.8% | viability at 25 µM [8]: 24.5% | viability at 50 µM [8]: 16% | viability at 100 µM [8]: 8.2% | IC50 [8]: 7.94 ± 0.5 µM | viability at 1.56 µM [9]: 100% | viability at 3.125 µM [9]: 93.7% | viability at 6.25 µM [9]: 72.9% | viability at 12.5 µM [9]: 51.6% | viability at 25 µM [9]: 39.2% | viability at 50 µM [9]: 27.1% | viability at 100 µM [9]: 19.3% | IC50 [9]: 17.5 ± 1.3 µM | IC50 ([10]; PI3K-α IC50 ng/ml, supplement lab report): 6.43 nM | IC50 ([10]; PI3Kα enzymatic IC50 (nM), mean of triplicate): 2.21 ± 0.11 nM | PI3K-α %inh ([10]; conc 0.1 (unit not given)): 22.1% | PI3K-α %inh ([10]; conc 1 (unit not given)): 42.7% | PI3K-α %inh ([10]; conc 10 (unit not given)): 67% | PI3K-α %inh ([10]; conc 100 (unit not given)): 80.7% | IC50 ([11]; VEGFR2 IC50 ng/ml, supplement lab report): 250 nM | IC50 ([11]; VEGFR-2 enzymatic IC50 (nM), mean of triplicate): 68 nM and 86 nM | vegfr2 %inh ([11]; conc 0.01 (unit not given)): 28.7% | vegfr2 %inh ([11]; conc 0.1 (unit not given)): 52.7% | vegfr2 %inh ([11]; conc 1 (unit not given)): 75.3% | vegfr2 %inh ([11]; conc 10 (unit not given)): 90.4%

COc1ccccc1/C=N/N=C(\C)c1cc2ccccc2o1 [Compound 10, (E)-1-[1-(benzofuran-2-yl)ethylidene]-2-((E)-2-methoxybenzylidene)hydrazine]
viability at 1.56 µM [1]: 100% | viability at 3.125 µM [1]: 100% | viability at 6.25 µM [1]: 91.9% | viability at 12.5 µM [1]: 72.7% | viability at 25 µM [1]: 63.1% | viability at 50 µM [1]: 50.2% | viability at 100 µM [1]: 38.1% | IC50 [1]: 51 ± 3 µM | viability at 3.125 µM [2, 14]: 100% | viability at 1.56 µM [2, 15]: 100% | viability at 6.25 µM [2, 15]: 100% | viability at 12.5 µM [2, 15]: 93.6% | viability at 25 µM [2, 15]: 71.7% | viability at 50 µM [2, 15]: 54.8% | viability at 100 µM [2, 15]: 43.3% | IC50 [3]: 67.7 ± 3.4 µM | IC50 ([6]; Hela and PC3, one range for 9 and 10 together, read-out: IC50 values range against Hela and PC3 cell line): 13.8 to 32.1 µM | melting point: 154 to 156 °C | viability at 1.56 µM [7]: 100% | viability at 3.125 µM [7]: 100% | viability at 6.25 µM [7]: 94.7% | viability at 12.5 µM [7]: 79.3% | viability at 25 µM [7]: 65.2% | viability at 50 µM [7]: 58% | viability at 100 µM [7]: 40.4% | IC50 [7]: 62.8 ± 3.3 µM | viability at 1.56 µM [8]: 100% | viability at 3.125 µM [8]: 85.9% | viability at 6.25 µM [8]: 63.5% | viability at 12.5 µM [8]: 48.1% | viability at 25 µM [8]: 33.7% | viability at 50 µM [8]: 25.8% | viability at 100 µM [8]: 17% | IC50 [8]: 13.8 ± 1 µM | viability at 1.56 µM [9]: 100% | viability at 3.125 µM [9]: 96.3% | viability at 6.25 µM [9]: 78.2% | viability at 12.5 µM [9]: 59.1% | viability at 25 µM [9]: 46.8% | viability at 50 µM [9]: 37% | viability at 100 µM [9]: 23.5% | IC50 [9]: 24.8 ± 1.9 µM

O=C(CN1CCN(c2nn3c(-c4ccccc4)nnc3c3ccccc23)CC1)Nc1ccc(F)cc1 [Compound VII]
IC50 [12]: 2 µM | IC50 [13]: 3.4 µM
